Series [1] deals with TR146 cells. The series is described as follows: Chelant effects on Zn flux via TR146 measurements (FLIPR). The format is cell-based. To be noted: relative to the flux of the Zn lactate control; for 5 micro M Chelant Control / 50 micro M Chelant Control: chelant alone, no Zn.
Description: These combinations were then placed into growth media and measurement of Zn uptake into TR146 cells was done using a FLIPR (Fluorescent Imaging Plate Reader) assay, as described in EXAMPLE 2.
The test system of series [2] is TR146 cells. The series is described as follows: Screening of Zn indicators by Zn uptake into TR146 cells (FLIPR). The format is cell-based. As to conditions: Zn indicators screened using TR146 cells. The protocol:
As with most metal ions, the choice of indicator is dependent on the cell type, ion channel, and metal specificity.
(§1) To screen the Zn indicators, measurement of Zn uptake into TR146 cells was done using a FLIPR (Fluorescent Imaging Plate Reader) assay. The assay was established using a cell membrane permeable version of Zn-indicator, FluoZin-3 AM (Life Technologies, Grand Island, N.Y.). TR146 cells were grown to confluency in 15 ml growth medium [high glucose DMEM (Dulbecco's Modification of Eagle's Medium) supplemented with 10% FBS (fetal bovine serum), 100 units/ml penicillin and 100 μg/ml streptomycin in a 75 cm^2 flask for 3 days at 37° C. in a mammalian cell culture incubator set at 5% CO2. […] FluoZin-3 AM is a fluorescent dye used for quantifying intracellular Zn concentrations in the 1 to 100 nM to range. […] The pelleted cells were re-suspended in 10 ml assay buffer and 90 μl aliquots (˜50,000 cells) per well delivered to a 96-well assay plate and the plate was placed into a fluorometric imaging plate reader (FLIPR384 from Molecular Devices, Sunnyvale, Calif.) and basal fluorescence recorded (excitation wave length 494 nm and emission wave length 516 nm). Then Zn salt (for example Zn-lactate) was added and the increase in fluorescence was recorded for 5 minutes. […]

For series [3] the following is noted: read-out: Affinity Kd (Zn^2+); cited from earlier work.
Series [4] relates to TR146 cells. In words: Flux of Zn salts in TR146 cells (FLIPR, FluoZin-3 AM). The format is cell-based. As to conditions: for % of Zn Lactate Flux: Zn-lactate = 100%. The procedure:
(§2) Measurement of Zn uptake into TR146 cells was done using a FLIPR (Fluorescent Imaging Plate Reader) assay. The assay was established using a cell membrane permeable version of Zn dye, FluoZin-3 AM (Life Technologies, Grand Island, N.Y.). TR146 cells were grown in 15 ml growth medium [high glucose DMEM (Dulbecco's Modification of Eagle's Medium) supplemented with 10% FBS (fetal bovine serum), 100 units/ml penicillin and 100 μg/ml streptomycin in a 75 cm^2 flask for 3 days at 37° C. in a mammalian cell culture incubator set at 5% CO2. Cells were detached with addition of 10 ml of PBS (phosphate buffered saline) and gentle hand shaking, and transferred to a 50 ml tube and centrifuged at 850 rpm for 3 minutes to remove PBS. After centrifugation, a pellet of cells was formed in the bottom of the tube separating them from the supernatant solution. The supernatant was discarded and the cell pellet suspended in 1 ml of fresh growth medium to which 5 μl (12.5 μg) of FluoZin-3 AM Zn indicator was added and incubated for 30 minutes with gentle shaking. FluoZin-3 AM is a fluorescent dye used for quantifying intracellular Zn concentrations in the 1 to 100 nM to range. At the end of the 30 minutes, 45 ml of assay buffer [1×HBSS (Hank's Balanced Salt Solution), 20 mM HEPES (4-(2-Hydroxyethyl)-1-piperazineethanesulfonic acid)] was added to wash the cells and the resulting combination was then centrifuged at 850 rpm for 3 minutes to remove excess buffer and FluoZin-3 AM Zn indicator. The pelleted cells were re-suspended in 10 ml assay buffer and 90 μl aliquots (˜50,000 cells) per well delivered to a 96-well assay plate and the plate is placed into a fluorometric imaging plate reader (FLIPR384 from Molecular Devices, Sunnyvale, Calif.) and basal fluorescence recorded (excitation wave length 494 nm and emission wave length 516 nm). Then Zn salt (for example Zn-lactate) was added and the increase in fluorescence was recorded for 5 minutes. Zn-flux observed with different Zn salts with Zn-lactate value as reference (100%) is shown below in TABLE 2.

For series [5], the system named is TR146 cells. The series is described as follows: Effects of cationic polymers and dentifrice binders on uptake of zinc lactate by TR146 cells. Format: cell-based. To be noted: 50 μM Zn Lactate alone (reference). From the text: After centrifugation, a pellet of cells was formed in the bottom of the tube separating them from the supernatant solution.
In series [6] the test system is TR146 cells. In words: Bioavailability of Zn from formulated dentifrices and rinses, Zn uptake by TR146 cells (FLIPR). Format: cell-based. To be noted: 0.01% Dentifrices A-D tested on the TR146 cells; Zn Lactate Control = 100%. The protocol:
as §1, with “Measurement of” for “To screen the Zn indicators, measurement of”, “of Zn dye,” for “of Zn-indicator,”, “grown” for “grown to confluency”, “CO2. Cells were detached with addition of 10 ml of PBS (phosphate buffered saline) and gentle hand shaking, and transferred to a 50 ml tube and centrifuged at 850 rpm for 3 minutes to remove PBS.” for “CO2.”, “plate is” for “plate was”

In series [7] the test system is TR146 cells. In words: Polyquats blocking Zn uptake into TR146 cells (FLIPR). Format: cell-based. As to conditions: Control Zn lactate. The procedure:
as §2, with “TABLE 2. […]” for “TABLE 2.”

Series [8] deals with TR146 cells. The series is described as follows: Competitive inhibition of Zn flux from zinc chloride by amine polymers in TR146 cells. Format: cell-based. As to conditions: ZnCl2 140 uM alone (reference). The protocol: as §1, with “Measurement of” for “To screen the Zn indicators, measurement of”, “of Zn dye,” for “of Zn-indicator,”, “grown” for “grown to confluency”, “CO2. Cells were detached with addition of 10 ml of PBS (phosphate buffered saline) and gentle hand shaking, and transferred to a 50 ml tube and centrifuged at 850 rpm for 3 minutes to remove PBS.” for “CO2.”, “plate is” for “plate was”

[9] abbreviates: Zn salt concentration Saturated.

Marks after values point to notes of the source that are not given here.

For `O=P(O)(O)OP(=O)(O)OP(=O)(O)O` [Sodium tripolyphosphate], in the series with TR146 cells [1], the “5 micro M Chelant Control” value is 0.00%; the “50 micro M Chelant Control” value turned out to be 0.00%; the “Zn flux, 5 micro M Chelant + 5 micro M Zn lactate” value came to 92.99%; the “Zn flux, 50 micro M Chelant + 50 micro M Zn lactate” value stood at 0.00%. Besides, the “Zn flux, 50 micro M Chelant + 50 micro M Zn lactate” value with TR146 cells [1] (listed as sodium tripolyphosphate) was “did not allow for any measureable levels of Zn to be detected”.
Turning to `COc1ccc(N(CC(=O)O)CC(=O)O)c(OCCOc2cc(-c3c4cc(F)c(=O)cc-4oc4cc(O)c(F)cc34)ccc2NCC(=O)O)c1` [FluoZin-3], in the series with TR146 cells [2], the “affinity for the flux of Zn into the TR146 cell line” value is reported as “most affinity for the flux of Zn into the TR146 cell line”. Further, in series [3], the Kd was 15 nM.
Take `NCC(=O)[O-].NCC(=O)[O-].[Zn+2]` [ZnGlycinate]: in the series on TR146 cells [4] (Zn salt concentration 4.40%), the “Fluorescence Unit” value is 41086.61. Moreover, the “% of Zn Lactate Flux” value in the series with TR146 cells [4] (Zn salt concentration 4.40% (206 mM)) is recorded as 86.93%.
Regarding `O=C([O-])CC(O)(CC(=O)[O-])C(=O)[O-].[Na+].[Na+].[Na+]` [Sodium citrate], in the series with TR146 cells [1], the “5 micro M Chelant Control” value was found to be 0.00%; the “50 micro M Chelant Control” value amounted to 0.00%; the “Zn flux, 5 micro M Chelant + 5 micro M Zn lactate” value is given as 104.83%; the “Zn flux, 50 micro M Chelant + 50 micro M Zn lactate” value is 43.63%.
Regarding `O=P([O-])(O)OP(=O)([O-])O.[Na+].[Na+]` [Sodium acid pyrophosphate], in the series on TR146 cells [1], the “5 micro M Chelant Control” value stood at 0.00%; the “50 micro M Chelant Control” value is given as 0.00%; the “Zn flux, 5 micro M Chelant + 5 micro M Zn lactate” value came out at 82.87%; the “Zn flux, 50 micro M Chelant + 50 micro M Zn lactate” value is on record as 0.00%. For the same compound, in the series on TR146 cells [1] (listed as sodium acid pyrophosphate), the “Zn flux, 50 micro M Chelant + 50 micro M Zn lactate” value is “did not allow for any measureable levels of Zn to be detected”.
For `[O-][n+]1ccccc1[S-].[O-][n+]1ccccc1[S-].[Zn+2]` [ZnPyrithione], in the series with TR146 cells [4] (Zn salt concentration 10 mM), the “Fluorescence Unit” value worked out at 50467.87 and the “% of Zn Lactate Flux” value is given as 106.78%.
Consider `O=P1([O-])OP(=O)([O-])OP(=O)([O-])OP(=O)([O-])OP(=O)([O-])OP(=O)([O-])O1.[Na+].[Na+].[Na+].[Na+].[Na+].[Na+]` [Sodium Hexametaphosphate], for which, in the series on TR146 cells [1], the “50 micro M Chelant Control” value stood at 0.00%; the “Zn flux, 5 micro M Chelant + 5 micro M Zn lactate” value was found to be 105.02%; the “Zn flux, 50 micro M Chelant + 50 micro M Zn lactate” value is 63.81%*.
As to `O=P([O-])([O-])[O-].O=P([O-])([O-])[O-].[Zn+2].[Zn+2].[Zn+2]` [ZnPhosphate], in the series with TR146 cells [4] (setting [9]), the “Fluorescence Unit” value is 49686.65 and the “% of Zn Lactate Flux” value came out at 105.13%.
The matching figures for `[O-2].[Zn+2]` [ZnOxide]: 50391.21 and 106.62%.
As for `CC(=O)[O-].CC(=O)[O-].[Zn+2]` [ZnAcetate], in the series on TR146 cells [4] (Zn salt concentration 10 uM), the “Fluorescence Unit” value is reported as 48547.79 and the “% of Zn Lactate Flux” value is 102.72%.
With `O=P(O)(O)O[C@H]1[C@H](OP(=O)(O)O)[C@@H](OP(=O)(O)O)[C@H](OP(=O)(O)O)[C@@H](OP(=O)(O)O)[C@H]1OP(=O)(O)O` [Phytic acid], in the series with TR146 cells [1], the “5 micro M Chelant Control” value came out at 0.00%; the “50 micro M Chelant Control” value is given as 0.00%; the “Zn flux, 5 micro M Chelant + 5 micro M Zn lactate” value came to 20.07%; the “Zn flux, 50 micro M Chelant + 50 micro M Zn lactate” value worked out at 33.87%.
For `O=S(=O)([O-])[O-].[Zn+2]` [ZnSO4], in the series with TR146 cells [4] (Zn salt concentration 1 mM), the “Fluorescence Unit” value was determined as 47853.41 and the “% of Zn Lactate Flux” value was determined as 101.25%.
For `CC(O)C(=O)[O-].CC(O)C(=O)[O-].[Zn+2]` (centres unmarked) [Zn Lactate], in the series with TR146 cells [5], the “Fluorescence Units (percentage of zinc lactate)” value was determined as 100%. In addition, in the series with TR146 cells [1] (No chelant, 50 micro M Zn Lactate), the “Zn flux, Zn Only” value is recorded as 100%*. Also, the “% of Zn Lactate Control (% Zn uptake by TR146 cells)” value in the series on TR146 cells [6] was determined as 100%. Besides, in the series with TR146 cells [7] (no quat), the “Fluorescent Counts with no Zn” value came to 24.5 and the “Fluorescent counts with Zn” value is given as 1774.8. Further, the “% Reduction compared to Zn control” value in the series on TR146 cells [7] (no quat (reference)) was 0%.
For `O=C([O-])C(=O)[O-].[Zn+2]` [ZnOxalate], in the series on TR146 cells [4] (setting [9]), the “Fluorescence Unit” value was 55389.93 and the “% of Zn Lactate Flux” value is given as 117.2%.
Take `[Cl-].[Cl-].[Zn+2]` [ZnCl2]: the “Zn Flux as a percentage of the Zn Chloride Control” value in the series with TR146 cells [8] is 100%. Also, in the series on TR146 cells [4] (Zn salt concentration 1 mM), the “Fluorescence Unit” value stood at 47853.41 and the “% of Zn Lactate Flux” value was 101.25%.
With `O=C([O-])[C@H](O)[C@@H](O)[C@H](O)[C@H](O)CO.[Na+]` [Sodium D-gluconate], in the series on TR146 cells [1], the “5 micro M Chelant Control” value is reported as 1.51%; the “50 micro M Chelant Control” value was found to be 0.00%; the “Zn flux, 5 micro M Chelant + 5 micro M Zn lactate” value amounted to 101.31%; the “Zn flux, 50 micro M Chelant + 50 micro M Zn lactate” value is 112.99%.

Broadly, the Kd is the free concentration of one partner at which half of the binding sites on the other are occupied at equilibrium, for simple one-to-one binding.

Source of the values: patent US9310353B2, “Method for evaluating bioavailable zinc” (The Procter & Gamble Company, priority 2014, dated 2016).
